Experimental data: ChEMBL document CHEMBL1201862, “PubChem BioAssay data set” (2004)
Activity calls are given as the source filed them.

Assays:
[1] = Trypanosoma cruzi growth suppression in host cells – NIH3T3 host cells, beta-gal luminescence, confirmation (AID 2044); assay type: functional, cell-based;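 note: intracellular parasites grown in NIH/3T3 mouse fibroblasts as host cells; luminescent beta-galactosidase reporter signal from transgenic T. cruzi replicating inside host cells; inhibitors lower the luminescence signal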
[2] = NIH3T3 cell viability loss – ATP luminescence, mouse fibroblasts, counter-screen, dose response (AID 2010); assay type: functional, cell-based;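 note: cells exposed to compound for about 90 hours before reading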
[3] = target: T1, Tyrosine-protein phosphatase non-receptor type 22 (Homo sapiens, UniProt Q9Y2R2); assay type: functional
T1 sequence (Q9Y2R2 whole entry): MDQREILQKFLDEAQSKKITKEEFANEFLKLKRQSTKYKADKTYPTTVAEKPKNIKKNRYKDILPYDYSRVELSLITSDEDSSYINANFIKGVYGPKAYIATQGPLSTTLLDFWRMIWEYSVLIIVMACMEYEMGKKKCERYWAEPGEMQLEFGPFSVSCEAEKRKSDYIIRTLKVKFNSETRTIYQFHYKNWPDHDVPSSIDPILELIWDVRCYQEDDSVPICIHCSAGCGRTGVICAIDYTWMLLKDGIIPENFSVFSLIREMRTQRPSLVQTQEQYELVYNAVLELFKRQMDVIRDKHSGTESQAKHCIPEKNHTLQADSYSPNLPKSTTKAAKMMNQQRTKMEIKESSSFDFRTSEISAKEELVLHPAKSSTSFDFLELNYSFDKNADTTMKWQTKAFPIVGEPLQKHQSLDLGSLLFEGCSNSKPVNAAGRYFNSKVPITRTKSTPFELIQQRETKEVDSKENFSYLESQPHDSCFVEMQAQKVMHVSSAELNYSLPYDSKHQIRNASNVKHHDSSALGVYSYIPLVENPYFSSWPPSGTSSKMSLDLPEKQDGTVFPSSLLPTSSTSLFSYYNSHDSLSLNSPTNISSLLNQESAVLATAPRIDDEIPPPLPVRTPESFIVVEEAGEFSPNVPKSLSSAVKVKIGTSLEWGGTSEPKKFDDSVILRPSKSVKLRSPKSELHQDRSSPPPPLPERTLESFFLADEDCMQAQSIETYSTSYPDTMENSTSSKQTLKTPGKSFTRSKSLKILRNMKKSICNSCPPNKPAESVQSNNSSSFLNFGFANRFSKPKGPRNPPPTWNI

[4] = target: Small ubiquitin-related modifier 1 (Homo sapiens, UniProt P63165); test: SUMO1 protein-protein binding blockers, potency – biochemical, FRET, dose response (AID 624383); assay type: functional; conditions: read-out: IC50_Mean
Chain of Small ubiquitin-related modifier 1 (P63165 whole entry): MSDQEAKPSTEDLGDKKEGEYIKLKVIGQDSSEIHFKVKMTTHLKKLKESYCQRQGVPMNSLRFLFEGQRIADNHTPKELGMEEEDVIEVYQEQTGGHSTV

[5] = target: T2, Long-chain-fatty-acid--AMP ligase FadD28 (Mycobacterium tuberculosis, UniProt P9WQ59); test: Fluorescence polarization aasay to screen for inhibitors that compete for the binding of FadD28 to a bisubstrate Measured in Biochemical System Using Plate Reader - 2147-01_Inhibitor_Dose_CherryPick_Activity.; assay type: functional, Mycobacterium tuberculosis H37Rv
T2 sequence (P9WQ59 whole entry): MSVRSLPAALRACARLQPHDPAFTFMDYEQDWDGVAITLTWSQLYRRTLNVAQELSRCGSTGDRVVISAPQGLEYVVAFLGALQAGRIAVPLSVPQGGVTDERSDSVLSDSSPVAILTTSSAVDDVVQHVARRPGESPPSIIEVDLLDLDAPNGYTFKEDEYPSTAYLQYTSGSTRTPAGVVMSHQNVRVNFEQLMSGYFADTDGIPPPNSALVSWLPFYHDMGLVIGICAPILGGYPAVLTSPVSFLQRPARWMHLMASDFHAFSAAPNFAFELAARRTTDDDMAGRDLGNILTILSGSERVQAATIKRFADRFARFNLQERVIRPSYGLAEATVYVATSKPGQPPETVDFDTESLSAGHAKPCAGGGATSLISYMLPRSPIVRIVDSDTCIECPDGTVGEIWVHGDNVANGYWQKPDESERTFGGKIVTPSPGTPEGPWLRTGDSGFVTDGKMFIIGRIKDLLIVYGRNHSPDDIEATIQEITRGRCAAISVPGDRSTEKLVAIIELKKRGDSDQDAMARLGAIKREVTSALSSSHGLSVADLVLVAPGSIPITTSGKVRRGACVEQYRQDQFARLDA

[6] = target: T3, Tyrosine-protein phosphatase non-receptor type 7 (Homo sapiens, UniProt P35236); assay type: functional
T3 sequence (P35236 whole entry): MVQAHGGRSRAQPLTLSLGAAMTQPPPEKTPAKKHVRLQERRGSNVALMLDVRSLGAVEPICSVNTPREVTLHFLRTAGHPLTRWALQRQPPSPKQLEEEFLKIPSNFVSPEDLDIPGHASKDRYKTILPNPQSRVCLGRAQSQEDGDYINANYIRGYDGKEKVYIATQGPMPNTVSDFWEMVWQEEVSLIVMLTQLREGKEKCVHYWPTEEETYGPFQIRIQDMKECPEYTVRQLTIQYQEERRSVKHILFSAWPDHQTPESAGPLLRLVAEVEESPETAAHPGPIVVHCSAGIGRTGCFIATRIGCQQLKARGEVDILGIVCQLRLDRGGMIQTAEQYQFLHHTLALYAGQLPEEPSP

[7] = target: Small ubiquitin-related modifier 2 (Homo sapiens, UniProt P61956); test: disruption of SUMO2 interaction with SIM peptide – biochemical, fluorescence polarization, uHTS hits, selectivity assay for SUMO1 interaction inhibitor project, dose response (AID 624385); assay type: functional; conditions: read-out: IC50_Mean
Chain of Small ubiquitin-related modifier 2 (P61956 whole entry): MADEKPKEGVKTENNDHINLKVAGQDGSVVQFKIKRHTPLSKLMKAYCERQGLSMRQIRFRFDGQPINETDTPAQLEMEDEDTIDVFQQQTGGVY

[8] = target: T1, Tyrosine-protein phosphatase non-receptor type 22; assay type: functional; remark: listed apart in the source
[9] = target: T4, Tyrosyl-DNA phosphodiesterase 2 (Homo sapiens, UniProt O95551); test: potency against TDP2 phosphodiesterase activity – biochemical, epi absorbance, IC50, dose response (AID 743297)
T4 sequence (O95551 whole entry): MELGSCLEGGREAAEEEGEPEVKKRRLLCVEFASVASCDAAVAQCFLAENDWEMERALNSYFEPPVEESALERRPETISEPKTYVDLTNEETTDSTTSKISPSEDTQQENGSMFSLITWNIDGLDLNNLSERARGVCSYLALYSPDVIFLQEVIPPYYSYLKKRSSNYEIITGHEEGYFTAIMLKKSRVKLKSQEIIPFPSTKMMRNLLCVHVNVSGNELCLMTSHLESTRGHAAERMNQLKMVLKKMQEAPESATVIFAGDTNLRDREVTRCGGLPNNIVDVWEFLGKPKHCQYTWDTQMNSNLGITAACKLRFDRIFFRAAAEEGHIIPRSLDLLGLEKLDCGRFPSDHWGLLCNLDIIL

[10] = target: T5, Sentrin-specific protease 8 (Homo sapiens, UniProt Q96LD8); assay type: functional;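 note: kinetic enzyme assay of SENP8 cleaving a Nedd8 protein substrate, dose-response confirmation of screening hits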
T5 sequence (Q96LD8 whole entry): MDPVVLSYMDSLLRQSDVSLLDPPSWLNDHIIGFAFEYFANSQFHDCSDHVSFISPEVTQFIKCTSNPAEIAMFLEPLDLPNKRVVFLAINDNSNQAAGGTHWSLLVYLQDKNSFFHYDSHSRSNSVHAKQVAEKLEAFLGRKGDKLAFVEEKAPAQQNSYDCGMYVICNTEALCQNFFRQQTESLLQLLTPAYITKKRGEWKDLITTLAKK

CCN1/C(=C/c2ccc3cc(C)ccc3[n+]2CC)Sc2cc(C)c(C)cc21
EC50 [1]: < 0.1 µM (active) | EC50 [2]: 5.67 µM (active)

Nc1ccc2nc3c(O)nc(S)nc3nc2c1
IC50 [3]: 76.3 µM (active) | IC50 [4]: 17.5 µM (active) | AC50 [5]: 46.1 µM (active) | IC50 [6]: > 79.4 µM (inactive) | IC50 [7]: 55.2 µM (inactive) | IC50 [8]: > 79.4 µM (inactive)

COc1ccc(C(=O)Nc2nc3c(s2)Cc2cc(OC)ccc2-3)cc1
IC50 [9]: 11.2 µM (inactive)

Cc1oc2c(c1C(=O)c1ccccc1)C(=O)C(=O)c1ccccc1-2
IC50 [9]: 14.2 µM (inactive)

O=C1CCCC2=C1C1(O)C(=O)c3ccccc3C1(O)O2 (configuration not stated)
IC50 [10]: 6.65 µM (active) | IC50 [9]: 8.01 µM (active)

CSc1ccc(C=NNc2ccc(S(=O)(=O)Nc3ccccc3C(=O)O)cc2[N+](=O)[O-])cc1
IC50 [4]: 50.8 µM (inactive) | IC50 [7]: 2.38 µM (active)

O=C1C(Cl)=C(NCCN2CCCCC2)C(=O)c2ccccc21
EC50 [1]: 0.509 µM (active) | EC50 [2]: 0.798 µM (active)

O=C(O)COc1ccc(/C=N/NC(=O)c2ccc(-c3csc(Nc4ccc(Cl)cc4)n3)cc2)cc1
IC50 [3]: < 1.24 µM (active) | IC50 [6]: < 1.24 µM (active) | IC50 [8]: < 1.24 µM (active)

COc1cc(NCCCNC(C)C)c2nccc(C)c2c1
IC50 [10]: 1.09 µM (active) | IC50 [9]: > 128 µM (inactive)

CC(/C=C1\SC(=S)N(NS(=O)(=O)c2ccccc2)C1=O)=C\c1ccccc1
AC50 [5]: > 100 µM (inactive)
